This note sets out measurements from ChEMBL document CHEMBL2073999, “Vectorial transport by double-transfected cells expressing the human uptake transporter SLC21A8 and the apical export pump ABCC2” (Mol Pharmacol, 2001).

The experiment relates to MDCK-II. Briefly: TP_TRANSPORTER: transepithelial transport in OATP1B3/MRP2 double transfectant (MDCKII). Format: functional, cell-based.
Regarding `CO[C@H]1/C=C/O[C@@]2(C)Oc3c(C)c(O)c4c(O)c(c(/C=N/N5CCN(C)CC5)c(O)c4c3C2=O)NC(=O)/C(C)=C\C=C\[C@H](C)[C@H](O)[C@@H](C)[C@@H](O)[C@@H](C)[C@H](OC(C)=O)[C@@H]1C`, the Activity result is “substrate []”. In the case of `C[C@]12CC[C@@H]3c4ccc(O)cc4CC[C@H]3[C@@H]1CC[C@@H]2O[C@@H]1O[C@H](C(=O)O)[C@@H](O)[C@H](O)[C@H]1O`, the Activity result is “substrate []”.

For `Cc1ccc(N(CC(=O)O)CC(=O)O)c(OCCOc2cc(-c3c4cc(Cl)c(=O)cc-4oc4cc(O)c(Cl)cc34)ccc2N(CC(=O)O)CC(=O)O)c1`, the Activity result is “substrate []”. In the case of `CCCCC/C=C\C\C=C/C=C/C=C/[C@@H](SC[C@@H](NC(=O)CC[C@H](N)C(=O)O)C(=O)NCC(=O)O)[C@@H](O)CCCC(=O)O` it was “substrate []”; in that of `O=C1OC(c2ccc(O)c(S(=O)(=O)O)c2)(c2ccc(O)c(S(=O)(=O)O)c2)c2c(Br)c(Br)c(Br)c(Br)c21`, “substrate []”; in that of `C[C@]12CC[C@H](OS(=O)(=O)O)CC1=CC[C@@H]1[C@@H]2CC[C@]2(C)C(=O)CC[C@@H]12`, “substrate []”.
